Laboratory results: ChEMBL document CHEMBL5325414, “Novel neuroprotective pyromeconic acid derivatives with concurrent anti-Aβ deposition, anti-inflammatory, and anti-oxidation properties for treatment of Alzheimer's disease” (Eur J Med Chem, 2023)
The source made the active and inactive calls. No cut-off for these calls is given here.

How the values were obtained:
[1] = biological target: T1, Amyloid-beta precursor protein (Homo sapiens, UniProt P05067); test: Inhibition of Fe3+ induced of amyloid beta (1 to 42) aggregation (unknown origin)
[2] = Drug concentration in hippocampus of Sprague-Dawley rat at 15 mg/kg, IG measured after 0.25 hrs; type: ADME, organism-based; conditions: po, read-out: Drug uptake
[3] = Acute toxicity in mouse assessed as change in body weight at 2000 mg/kg, IG administered as single dose measured after 14 days; type: organism-based; conditions: in vivo, po, 336 h, time 14 day
[4] = Metal chelating activity assessed as compound-Ca2+ complex formation by optical shift at 50 uM in PBS buffer 7.4 by UV-vis spectrometric analysis
[5] = biological target: T1, Amyloid-beta precursor protein; test: Inhibition of amyloid beta (1 to 42) (unknown origin) self aggregation assessed as disaggregation relative to control; design: concentration or dose not given beside the values; conditions: concentration not given here
[6] = biological target: T1, Amyloid-beta precursor protein; test: Inhibition of amyloid beta (1 to 42) (unknown origin) self aggregation
Mus musculus [7] = test: Neuroprotective effect in scopolamine induced cognitively impaired mouse assessed as […] of amyloid beta plaque deposition at 20 mg/kg by ELISA analysis; type: functional, organism-based
Mus musculus [8] = test: In vivo antiinflammatory activity in scopolamine induced cognitive impaired ICR mouse assessed as decrease in GFAP levels in cortex; type: functional, organism-based
[9] = Metal chelating activity assessed as compound-Cu2+ complex formation by measuring shift at 1:1 at 50 uM in PBS buffer 7.4 by UV-vis spectrometric analysis
[10] = Drug concentration in hippocampus of Sprague-Dawley rat at 15 mg/kg, IG measured after 0.167 hrs; type: ADME, organism-based; conditions: po, read-out: Drug uptake
[11] = Drug concentration in plasma of Sprague-Dawley rat at 15 mg/kg, IG measured after 0.167 hrs; type: ADME, organism-based; conditions: po
[12] = Ratio of drug concentration in hippocampus to plasma of Sprague-Dawley rat at 15 mg/kg, IG measured after 0.25 hrs; type: ADME, organism-based; conditions: po
BV-2 [13] = test: Neuroprotective activity against amyloid beta (1 to 42) induced neurotoxicity in mouse BV-2 cells assessed as survival of cells at 10 uM treated for 24 hrs relative to control; type: functional
[14] = Drug concentration in plasma of Sprague-Dawley rat at 15 mg/kg, IG measured after 1 hrs; type: ADME, organism-based; conditions: po
Mus musculus [15] = test: Anti alzheimer activity in scopolamine induced anxiety in ICR mouse assessed as increase in discrimination ratio pretreated with scopolamine at 3 mg/kg, ip for 31 days followed by compound addition at 20 mg/kg, po at day 7 to 31 by novel object recognition test; type: functional, organism-based; conditions: time 25.0 day
[16] = Tmax in Sprague-Dawley rat at 15 mg/kg, IG; type: ADME, organism-based; conditions: in vivo, po
[17] = Drug concentration in plasma of Sprague-Dawley rat at 15 mg/kg, IG measured after 4 hrs; type: ADME, organism-based; conditions: po
[18] = Drug concentration in hippocampus of Sprague-Dawley rat at 15 mg/kg, IG measured after 4 hrs; type: ADME, organism-based; conditions: po, read-out: Drug uptake
[19] = Ratio of drug concentration in hippocampus to plasma of Sprague-Dawley rat at 15 mg/kg, IG measured after 4 hrs; type: ADME, organism-based; conditions: po
Mus musculus [20] = test: Anti alzheimer activity in scopolamine induced anxiety in ICR mouse assessed as improved memory function pretreated with scopolamine at 3 mg/kg, ip for 31 days followed by compound addition at 20 mg/kg, po at day 7 to 31 by morris water maze test; type: functional, organism-based; conditions: time 25.0 day
Mus musculus [21] = test: In vivo antiinflammatory activity in scopolamine induced cognitive impaired ICR mouse assessed as decrease in IL-6 levels in cortex; type: functional, organism-based
[22] = Drug concentration in plasma of Sprague-Dawley rat at 15 mg/kg, IG measured after 0.5 hrs; type: ADME, organism-based; conditions: po
BV-2 [23] = test: Neuroprotective activity against amyloid beta (1 to 42) induced neurotoxicity in mouse BV-2 cells assessed as survival of cells treated for 24 hrs; type: functional, cell-based; conditions: dose 2.5-10 µM
BV-2 [24] = test: Effect of amyloid beta (1 to 42) indued apoptosis in mouse BV-2 cells assessed as late apoptotic cells at 2.5 uM measured by propidium iodide staining based flow cytometric analysis (reference value: 6.88%); type: functional
Mus musculus [25] = test: In vivo effect on NRF2 expression in scopolamine induced cognitive impaired mouse assessed as reversal of NRF2 signalling in hippocampus treated at 20 mg/kg by immunofluorescence analysis; type: functional, organism-based
Mus musculus [26] = test: Antioxidant activity in scopolamine induced cognitive impaired mouse assessed as decrease of MDA level in cortex at 20 mg/kg; type: functional, organism-based
[27] = Acute toxicity in mouse assessed as lethal dose administered as single IG dose measured after 14 days measured by H and E staining analysis; conditions: in vivo, po, time 14 day
[28] = biological target: T1, Amyloid-beta precursor protein; test: Inhibition of amyloid beta (1 to 42) (unknown origin) self aggregation assessed as shorter in amyloid fibrils compound addition at 50 uM after fibrilation for 24 hrs
Mus musculus [29] = test: In vivo antiinflammatory activity in scopolamine induced cognitive impaired ICR mouse assessed as decrease in Iba1 levels in cortex; type: functional, organism-based
BV-2 [30] = test: Effect of amyloid beta (1 to 42) indued apoptosis in mouse BV-2 cells assessed as early apoptotic cells at 5 uM measured by propidium iodide staining based flow cytometric analysis (reference value: 26.12%); type: functional
Mus musculus [31] = test: In vivo effect on NRF2 expression in scopolamine induced cognitive impaired mouse assessed as reversal of NRF2 signalling in hippocampus treated at 20 mg/kg by immunoblot analysis; type: functional, organism-based
BV-2 [32] = test: Effect of amyloid beta (1 to 42) indued apoptosis in mouse BV-2 cells assessed as late apoptotic cells at 10 uM measured by propidium iodide staining based flow cytometric analysis (reference value: 6.88%); type: functional
[33] = AUC(0 to t) in Sprague-Dawley rat at 15 mg/kg, IG; type: ADME, organism-based; design: dose 15 mg/kg, route ig; conditions: in vivo, po
[34] = Drug concentration in hippocampus of Sprague-Dawley rat at 15 mg/kg, IG measured after 1 hrs; type: ADME, organism-based; conditions: po, read-out: Drug uptake
[35] = Metal chelating activity assessed as compound-Na+ complex formation by optical shift at 50 uM in PBS buffer 7.4 by UV-vis spectrometric analysis
[36] = biological target: T1, Amyloid-beta precursor protein; test: Inhibition of Cu2+ induced of amyloid beta (1 to 42) aggregation (unknown origin)
[37] = Ratio of drug concentration in hippocampus to plasma of Sprague-Dawley rat at 15 mg/kg, IG measured after 2 hrs; type: ADME, organism-based; conditions: po
Mus musculus [38] = test: In vivo antiinflammatory activity in scopolamine induced cognitive impaired ICR mouse assessed as decrease in Iba1 levels in hippocampus by immunoblot analysis; type: functional, organism-based
BV-2 [39] = test: Antioxidant activity in H2O2 treated mouse BV-2 cells assessed as nuclear translocation of NRF2 at 5 to 20 uM by immunofluorescence analysis; type: functional, cell-based; conditions: dose 5-20 µM
BV-2 [40] = test: Effect of amyloid beta (1 to 42) indued apoptosis in mouse BV-2 cells assessed as early apoptotic cells at 2.5 uM measured by propidium iodide staining based flow cytometric analysis (reference value: 26.12%); type: functional
Mus musculus [41] = test: Anti alzheimer activity in scopolamine induced anxiety in ICR mouse assessed as improved exploratory activity pretreated with scopolamine at 3 mg/kg, ip for 31 days followed by compound addition at 20 mg/kg, po at day 7 to 31; type: functional, organism-based; conditions: time 25.0 day
[42] = biological target: T1, Amyloid-beta precursor protein; test: Inhibition of amyloid beta (1 to 42) (unknown origin) self aggregation at 50 uM relative to control

T1 sequence (P05067 whole entry): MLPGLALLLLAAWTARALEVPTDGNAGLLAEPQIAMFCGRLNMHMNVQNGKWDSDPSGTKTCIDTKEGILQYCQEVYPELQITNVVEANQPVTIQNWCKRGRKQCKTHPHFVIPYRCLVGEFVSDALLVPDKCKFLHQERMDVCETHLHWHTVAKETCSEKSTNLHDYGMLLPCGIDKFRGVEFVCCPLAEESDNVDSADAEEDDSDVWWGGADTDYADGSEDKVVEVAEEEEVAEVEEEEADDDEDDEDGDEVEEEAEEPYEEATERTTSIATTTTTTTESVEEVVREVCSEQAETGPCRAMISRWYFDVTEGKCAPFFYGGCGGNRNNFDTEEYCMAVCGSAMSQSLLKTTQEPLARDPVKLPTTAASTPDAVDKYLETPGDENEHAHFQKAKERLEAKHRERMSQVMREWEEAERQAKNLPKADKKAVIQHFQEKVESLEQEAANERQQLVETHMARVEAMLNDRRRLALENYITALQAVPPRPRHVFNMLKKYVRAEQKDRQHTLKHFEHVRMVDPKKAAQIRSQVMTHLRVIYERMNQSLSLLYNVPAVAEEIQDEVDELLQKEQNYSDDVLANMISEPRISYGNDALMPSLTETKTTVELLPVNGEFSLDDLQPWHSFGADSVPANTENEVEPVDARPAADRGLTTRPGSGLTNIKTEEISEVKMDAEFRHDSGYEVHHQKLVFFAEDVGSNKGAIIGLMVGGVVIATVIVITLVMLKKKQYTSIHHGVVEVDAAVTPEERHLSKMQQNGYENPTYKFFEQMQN

**Q.** For `O=c1ccoc(/C=C/c2ccc(O)c(O)c2)c1O`, which IC50 [1] is on record?
**A.** Its IC50 is 9.68 µM.

**Q.** And the concentration at 0.25 h [2]?
**A.** Its concentration at 0.25 h is 2.57 ng/mL.

**Q.** What about the Activity [3] of the same molecule?
**A.** The Activity was “Non-Toxic”.

**Q.** And the Activity [4]?
**A.** Its Activity is “inactive”.

**Q.** What about the inhibition [5] of the same molecule?
**A.** The inhibition was 90.4%.

**Q.** And the IC50 [6]?
**A.** The IC50 was 11.1 µM.

**Q.** What about the Activity (Mus musculus [7]) of the same molecule?
**A.** Its Activity is “Active”.

**Q.** What about the Activity (Mus musculus [8]) of the same molecule?
**A.** Its Activity is “Active”.

**Q.** What about the Activity [9] of the same molecule?
**A.** Its Activity is “Active”.

**Q.** What about the concentration at 0.167 h [10] of the same molecule?
**A.** The concentration at 0.167 h was 1.41 ng/mL.

**Q.** And the concentration at 0.167 h [11]?
**A.** Its concentration at 0.167 h is 22.2 ng/mL.

**Q.** What about the Kp at 0.25 h [12] of the same molecule?
**A.** The Kp at 0.25 h was 0.5.

**Q.** And the Activity (BV-2 [13])?
**A.** Its Activity is 75.5%.

**Q.** What about the concentration at 1 h [14] of the same molecule?
**A.** The concentration at 1 h was 1.77 ng/mL.

**Q.** And the Activity (Mus musculus [15])?
**A.** Its Activity is “Active”.

**Q.** What about the Tmax [16] of the same molecule?
**A.** Its Tmax is 10.2 min.

**Q.** What about the concentration at 4 h [17] of the same molecule?
**A.** Its concentration at 4 h is 0.95 ng/mL.

**Q.** And the concentration at 4 h [18]?
**A.** The concentration at 4 h was 4.89 ng/mL.

**Q.** And the Kp at 4 h [19]?
**A.** Its Kp at 4 h is 5.62.

**Q.** What about the Activity (Mus musculus [20]) of the same molecule?
**A.** The Activity was “Active”.

**Q.** What about the Activity (Mus musculus [21]) of the same molecule?
**A.** The Activity was “Active”.

**Q.** What about the concentration at 0.5 h [22] of the same molecule?
**A.** Its concentration at 0.5 h is 2.68 ng/mL.

**Q.** And the Activity (BV-2 [23])?
**A.** Its Activity is “Dose-Dependent Effect”.

**Q.** What about the Activity (BV-2 [24]) of the same molecule?
**A.** Its Activity is 10.2%.

**Q.** What about the Activity (Mus musculus [25]) of the same molecule?
**A.** The Activity was “Active”.

**Q.** What about the Activity (Mus musculus [26]) of the same molecule?
**A.** The Activity was “Active”.

**Q.** What about the LD50 at 336 h [27] of the same molecule?
**A.** Its LD50 at 336 h is at least 2000 mg/kg.

**Q.** What about the Activity [28] of the same molecule?
**A.** The Activity was “Active”.

**Q.** And the Activity (Mus musculus [29])?
**A.** The Activity was “Active”.

**Q.** And the Activity (BV-2 [30])?
**A.** The Activity was 8.32%.

**Q.** And the Activity (Mus musculus [31])?
**A.** Its Activity is “Active”.

**Q.** And the Activity (BV-2 [32])?
**A.** The Activity was 6.82%.

**Q.** What about the AUC(0-t) [33] of the same molecule?
**A.** The AUC(0-t) was 24.4 ng·h/mL.

**Q.** And the concentration at 1 h [34]?
**A.** The concentration at 1 h was 8.72 ng/mL.

**Q.** What about the Activity [35] of the same molecule?
**A.** Its Activity is “inactive”.

**Q.** What about the IC50 [36] of the same molecule?
**A.** Its IC50 is 3.69 µM.

**Q.** What about the Kp at 2 h [37] of the same molecule?
**A.** Its Kp at 2 h is 7.12.

**Q.** And the Activity (Mus musculus [38])?
**A.** Its Activity is “Active”.

**Q.** What about the Activity (BV-2 [39]) of the same molecule?
**A.** Its Activity is “Active”.

**Q.** And the Activity (BV-2 [40])?
**A.** Its Activity is 13.4%.

**Q.** What about the Activity (Mus musculus [41]) of the same molecule?
**A.** Its Activity is “Active”.

**Q.** What about the inhibition [42] of the same molecule?
**A.** Its inhibition is 80.3%.
